Consider one compound from paper PMC10076643, “Design, synthesis and anticancer activity studies of 3-(coumarin-3-yl)-acrolein derivatives: Evidenced by integrating network pharmacology and vitro assay” (Frontiers in Pharmacology, 2023).

Series [1] deals with MCF-7 (human breast cancer cell line). The series is described as follows: MTT antiproliferative assay, MCF-7. The series is classed as cell-based. Conditions: MCF7, 72 h. The source says:
(§1) All the synthesized compounds were screened for in vitro antiproliferative activity against four human cancer cell lines A549 (human lung cancer cell line), KB (human oral epidermoid carcinoma cell line), Hela (human cervical carcinoma cell line), MCF-7 (human breast cancer cell line) and two human normal cell lines HUVEC (human umbilical vein endothelial cell) and LO2 (human normal hepatocytes) through the 3-(4,5-dimethyl-2-thiazolyl)-2,5-diphenyl-2-H-tetrazolium bromide (MTT) assay.
(§2) Non-small-cell lung cancer (A549), oral epidermoid carcinoma (KB), cervical cancer (Hela) and breast cancer (MCF-7) cells were purchased from the American Type Culture Collection (ATCC, America). Human umbilical vein endothelial cell (HUVEC) and human normal hepatocytes (LO2) cells were provided by Guangzhou Medical University (Guangzhou, China). A549 and KB cells were cultured in RMPI-1640 medium (Gibco, America). Hela, MCF-7 and LO2 cells were cultured in DMEM medium (Gibco, America). HUVEC cells were cultured in Ham’s F-12K medium (Gibco, America). All the mediums were supplemented with 10% fetal bovine serum (FBS) (BI, State of Israel), 100 U/mL penicillin and 100 μg/mL streptomycin (Gibco, America), and all the cells were incubated in a sterile incubator at 37°C in an environment of 5% CO2. The tested compounds were dissolved in dimethyl sulfoxide (DMSO) at a concentration of 10 mM, and then diluted into different concentration of solutions by culture medium. The final concentration of DMSO was <0.01% (v/v) in all drug treatment groups to avoid the toxicity in the biological system. Untreated cells were used as a blank control and 5-fluorouracil treated cells were used as a positive control.
(§3) The incubated tumor cells were planted into 96-well plates (4×10^3 cells/well). After 24 h, the cells were adherent to the wall and treated with the compound 6e in different concentrations (0.78, 1.56, 3.12, 6.25, 12.50, 25.00, and 50.00 μM) for 72 h. Afterwards, the medium was supplemented with 10 µL MTT solution. After 4 h, the culture medium was removed and 100 µL DMSO was added. The absorbance was determined at the wavelength of 540 nm and 655 nm using a microplate reader (BioTek Epoch, America). The results were collected from three independent experiments. The IC50 was then calculated by using GraphPad Prism Software (version 7.0) and non-linear regression (curve fit).
(In general: Formazan colour is commonly taken as a measure of viable cells.)

Series [2] concerns PI3K in KB cells. The series can be described thus: Western blot, PI3K. In kind it is cell-based, human. The conditions noted are these: 0.40, 0.80, 1.60 μM, 24 h. An excerpt: (§4) Based on the results of network pharmacology, the key proteins related to PI3K/AKT pathway were detected by Western blotting to explore the antitumor mechanism of compound 6e. […] Such an inconsistency might be due to a compensatory increase in PI3K level after the reduction of AKT phosphorylation level. Additionally, the active-caspase 3 protein, anti-apoptosis protein Bcl-2 and pro-apoptosis protein Bax were further analyzed. Caspase-3 normally exists in the cytoplasm as zymogen. During the early stage of apoptosis, caspase-3 (32 KD) is cleaved to the active 17-kD caspase-3 fragment, which is responsible for morphological and biochemical changes in apoptosis. Bcl-2 and Bax are the […] located on the mitochondrial membrane and capable of controlling the MMP (ΔΨm) and the activation of caspase cascade.
(§5) A total of 4 × 10^5 KB cells were seeded into 6-well and grown for overnight. Then the cells adherent to the wall were treated with compound 6e in different concentrations (0, 0.40, 0.80, 1.60 μM) for 24 h. After that, cells were collected, SDS lysate, 100X protease inhibitor and 50X phosphorylation inhibitor were added in a certain proportion to lyse the cells. The protein content was determined by BCA reagent (Beyotime, China) according to the standard curve. […]
In general terms: In western blotting, separated proteins are transferred to a membrane and probed.

Series [3] concerns caspase-3 in KB cells. The series can be described thus: Western blot, caspase-3. The series is classed as cell-based, human. The conditions noted are these: 24 h.
Text: as §4, §5

Series [4] concerns KB (human oral epidermoid carcinoma cell line). The series is described as follows: MTT antiproliferative assay, KB. The series is classed as cell-based.
Text: as §1, §2, §3

The test system of series [5] is A549 (human lung cancer cell line). The series is described as follows: MTT antiproliferative assay, A549. In kind it is cell-based. Conditions: Homo sapiens, A549; MTT, 72 h.
Text: as §1, §2, §3

Series [6] relates to Hela (human cervical carcinoma cell line). The series can be described thus: MTT antiproliferative assay, Hela. The series is classed as cell-based. Conditions: 72 h.
Text: as §1, §2, §3

Series [7] has as its system HUVEC (human umbilical vein endothelial cell). The series can be described thus: MTT antiproliferative assay, HUVEC normal cells. The series is classed as cell-based. The conditions noted are these: 72 h.
Text: as §1, §2, §3

By IC50 is commonly meant the midpoint of a concentration-inhibition curve. Low values mean greater potency, high ones weaker potency. Usually melting point stands for the temperature of the solid-liquid transition.

Consider `O=CC=C(Cl)c1cc2ccc(OCc3ccccc3)cc2oc1=O` [Compound 6e, 3-(7-(Benzyloxy)-2-oxo-2H-chromen-3-yl)-3-chloroacrylaldehyde], for which the melting point lay in the range of 223 to 225 °C. Besides, the IC50 in series [1] is 14.8 ± 0.28 µM. Also, in series [2], the “relative PI3K level among the control and treatment groups” value is recorded as “not significantly different”. Moreover, in series [3] (0.80 μM), the “ratio of cleaved caspase-3 to caspase-3” value is “increased”. For the same compound, the “expression of the cleaved 17-kD caspase-3” value in series [3] (1.60 μM) is “upregulated”. In series [4] (Homo sapiens, MTT, 72 h), this compound showed an IC50 of 390 ± 70 nM. In addition, the “antiproliferative activity higher than 5-FU” value in series [4] (KB cells, relative to 5-FU) worked out at 15 fold. Besides, the “IC50 against KB cells lower than that of HUVECs (selectivity)” value in series [4] (KB vs HUVEC) is 65 fold. For the same compound, the “IC50 against KB cells lower than that of LO2 cells (selectivity)” value in series [4] (KB vs LO2) was found to be 129 fold. For the same compound, in series [5], the IC50 worked out at 7.4 ± 0.2 µM. In series [6], this compound registered an IC50 of 1820 ± 220 nM. The compound further returned an IC50 in series [7] of 25.26 ± 0.2 µM.
